The source of these data is patent publication US10703740B2, “Substituted benzimidazoles, their preparation and their use as pharmaceuticals” (NEOMED Institute, priority 2015, dated 2020).

Broadly, the IC50 is the point on the concentration scale where inhibition reaches its midpoint.

Like-named read-outs stand apart in the source and are kept apart here.

The test system of this test is human C-Myc transcription in MV-4-11 cells. As to the kind of experiment: Transcription of human C-Myc in human leukemic MV-4-11 cells (QuantiGene 2.0). It counts as cell-based. As to conditions: inhibition of C-Myc mRNA, 4 hours treatment, read-out: IC50 MV-4-11 Cell. The procedure:
The effect of compounds on transcription of human C-Myc gene is monitored in human B-myelomonocytic leukemia cell line MV-4-11 (from American Type Culture Collection (ATCC), Manassas, Va., USA) using QuantiGene 2.0 assay kit (Affymetrix, Santa Clara, Calif., USA).
Typically, 8,000 MV-4-11 cells are plated in sterile 96-well plates (Costar #3598 from Fisher Scientific Canada, Ottawa, Ontario, Canada) in Iscove's medium supplemented with 10% fetal bovine serum, glutamine (2 mM), and penicillin (100 I.U.) and streptomycin (100 μg/mL) (all from Wisent Inc., St. Bruno, Quebec, Canada). Compounds are dissolved in DMSO at 30 mM. A series of 1:3 dilutions are first made in DMSO, and further 1:100 dilutions are made in serum-containing cell culture media. The final concentration of DMSO is 0.1% in cell culture media. After cells are treated with various concentrations of test compound for 4 hours, cells are lysed using Quantigene 2.0 sample processing kit (# QS0100). C-Myc mRNA is detected using a QuantiGene 2.0 assay kit (# QS0009) with gene-specific probe to human C-Myc (# SA-50182) following the manufacturer's recommendations. Luminescene signals are read on Flexstation II microplate reader (Molecular Devices, Sunnyvale, Calif., USA).

`CCO[C@H](C)Cn1c(C2CCOCC2)nc2ccc(-c3cc(C)c(=O)n(C)c3)cc21` [Compound 39, (R)-5-(1-(2-ethoxypropyl)-2-(tetrahydro-2H-pyran-4-yl)-1H-benzo[d]imidazol-6-yl)-1,3-dimethylpyridin-2(1H)-one]: the IC50 (Homo sapiens, MV4-11, 4 h) is 84 nM.

With `CO[C@@H](C)Cn1c(C2CCC(F)(F)CC2)nc2ccc(-c3cc(C)c(=O)n(C)c3)cc21` [Compound 59, (S)-5-(2-(4,4-difluorocyclohexyl)-1-(2-methoxypropyl)-1H-benzo[d]imidazol-6-yl)-1,3-dimethylpyridin-2(1H)-one], the IC50 (Homo sapiens, MV4-11, 4 h) stood at 90 nM.

With “5-[2-(3-methoxycyclobutyl)-1-(2-(2,2,2-trifluoroethoxy)ethyl)-1H-benzo[d]imidazol-6-yl]-1,3-dimethylpyridin-2(1H)-one [Compound 63]”, the half-inhibitory concentration (IC50) came out at 17 nM.

Take `COC(C)Cn1c(C)nc2ccc(-c3cc(C)c(=O)n(C)c3)cc21` (stereo not drawn) [Compound 21a, 5-[3-(2-methoxypropyl)-2-methylbenzimidazol-5-yl]-1,3-dimethylpyridin-2-one]: the IC50 (Homo sapiens, MV4-11, 4 h) turned out to be 510 nM.

For the compound `Cc1cc(-c2ccc3nc([C@@H]4CCCO4)n(CCOC(F)(F)F)c3c2)cn(C)c1=O` (stereo in doubt) [Compound 30b, 1,3-dimethyl-5-[2-tetrahydrofuran-2-yl-3-[2-(trifluoromethoxy)ethyl]benzimidazol-5-yl]pyridin-2-one], the IC50 (Homo sapiens, MV4-11, 4 h) came out at 87 nM.

With `COCCn1c(CC2CCOCC2)nc2ccc(-c3cc(C)c(=O)n(C)c3)cc21` [Compound 42, 5-(1-(2-methoxyethyl)-2-((tetrahydro-2H-pyran-4-yl)methyl)-1H-benzo[d]imidazol-6-yl)-1,3-dimethylpyridin-2(1H)-one], the 50% inhibitory concentration (IC50) (Homo sapiens, MV4-11, 4 h) stood at 170 nM.

Take `CNc1cc(-c2ccc3nc(C4CC4)n(CCOC(F)(F)F)c3c2)cn(C)c1=O` [Compound 20, 5-[2-cyclopropyl-3-[2-(trifluoromethoxy)ethyl]benzimidazol-5-yl]-1-methyl-3-(methylamino)pyridin-2-one]: for the setting “Homo sapiens, MV4-11, 4 h”, the IC50 was 240 nM.

As for `Cc1cc(-c2ccc3nc(C4CCOCC4)n(CCC(F)(F)F)c3c2)cn(C)c1=O` [Compound 34, 1,3-dimethyl-5-[2-tetrahydropyran-4-yl-3-(3,3,3-trifluoropropyl)benzimidazol-5-yl]pyridin-2-one], the 50% inhibitory concentration (IC50) (Homo sapiens, MV4-11, 4 h) is 220 nM.

With `COC[C@@H](C)n1c(C(F)(F)F)nc2ccc(-c3cc(C)c(=O)n(C)c3)cc21` [Compound 26, 5-[3-[(1R)-2-methoxy-1-methyl-ethyl]-2-(trifluoromethyl)benzimidazol-5-yl]-1,3-dimethylpyridin-2-one], the IC50 (Homo sapiens, MV4-11, 4 h) is 230 nM.

Consider `COC[C@@H](C)n1c(CC2CCOCC2)nc2ccc(-c3cc(C)c(=O)n(C)c3)cc21` [Compound 50, (R)-5-(1-(1-methoxypropan-2-yl)-2-((tetrahydro-2H-pyran-4-yl)methyl)-1H-benzo[d]imidazol-6-yl)-1,3-dimethylpyridin-2(1H)-one], for which the concentration for half-maximal inhibition (IC50) (Homo sapiens, MV4-11, 4 h) amounted to 160 nM.

With `COC[C@H](C)n1c(C2CCC(F)(F)CC2)nc2ccc(-c3cc(C)c(=O)n(C)c3)cc21` [Compound 56, (S)-5-(2-(4,4-difluorocyclohexyl)-1-(1-methoxypropan-2-yl)-1H-benzo[d]imidazol-6-yl)-1,3-dimethylpyridin-2(1H)-one], the half-inhibitory concentration (IC50) (Homo sapiens, MV4-11, 4 h) worked out at 220 nM.

With `CCc1cc(-c2ccc3nc(C4CC4)n(CCOC(F)(F)F)c3c2)cn(C)c1=O` [Compound 14, 5-(2 cyclopropyl-3-(2-(trifluoromethoxy)ethyl)benzimidazol-5-yl)-3-ethyl-1-methylpyridin-2-one], the IC50 (Homo sapiens, MV4-11, 4 h) turned out to be 250 nM.

With `COC[C@H](C)n1c(C2CCOCC2)nc2ccc(-c3cc(C)c(=O)n(C)c3)cc21` [Compound 18, 5-[3-[(1S)-2-methoxy-1-methylethyl]-2-tetrahydropyran-4-yl-benzimidazol-5-yl]-1,3-dimethylpyridin-2-one], the half-maximal inhibitory concentration (IC50) (Homo sapiens, MV4-11, 4 h) was found to be 170 nM.

Consider `Cc1cc(-c2ccc3nc(C4CCOCC4)n(CC(C)C(F)(F)F)c3c2)cn(C)c1=O` (stereo not drawn) [Compound 46b, 1,3-dimethyl-5-(2-(tetrahydro-2H-pyran-4-yl)-1-(3,3,3-trifluoro-2-methylpropyl)-1H-benzo[d]imidazol-6-yl)pyridin-2(1H)-one], for which the IC50 worked out at 250 nM.

In the case of `Cc1cc(-c2ccc3nc(C4CC(F)(F)C4)n(CCOC(F)(F)F)c3c2)cn(C)c1=O` [Compound 27, 5-[2-(3,3-difluorocyclobutyl)-3-[2-(trifluoromethoxy)ethyl]benzimidazol-5-yl]-1,3-dimethylpyridin-2-one], the IC50 (Homo sapiens, MV4-11, 4 h) was found to be 92 nM.

For `CCOCCn1c(C2CCOCC2)nc2ccc(-c3cc(C)c(=O)n(C)c3)cc21` [Compound 60, 5-(1-(2-ethoxyethyl)-2-(tetrahydro-2H-pyran-4-yl)-1H-benzo[d]imidazol-6-yl)-1,3-dimethylpyridin-2(1H)-one], the IC50 (Homo sapiens, MV4-11, 4 h) was found to be 17 nM.

`COC1CC(c2nc3ccc(-c4cc(C)c(=O)n(C)c4)cc3n2CCOCC(F)(F)F)C1` (stereo not drawn) [Compound 62, 5-[2-(3-methoxycyclobutyl)-1-(2-(2,2,2-trifluoroethoxy)ethyl)-1H-benzo[d]imidazol-6-yl]-1,3-dimethylpyridin-2(1H)-one]: the half-maximal inhibitory concentration (IC50) (Homo sapiens, MV4-11, 4 h) was determined as 21 nM.

On to `Cc1cc(-c2ccc3nc(C4CCOCC4)n(CCOC(C)C)c3c2)cn(C)c1=O` [Compound 49, 5-(1-(2-isopropoxyethyl)-2-(tetrahydro-2H-pyran-4-yl)-1H-benzo[d]imidazole-6-yl)-1,3-dimethylpyridin-2(1H)-one], for which, under “Homo sapiens, MV4-11, 4 h”, the IC50 is 22 nM.

Consider `CO[C@H](C)Cn1c(C2CCC(F)(F)CC2)nc2ccc(-c3cc(C)c(=O)n(C)c3)cc21` [Compound 58, (R)-5-(2-(4,4-difluorocyclohexyl)-1-(2-methoxypropyl)-1H-benzo[d]imidazol-6-yl)-1,3-dimethylpyridin-2(1H)-one], for which the half-inhibitory concentration (IC50) (Homo sapiens, MV4-11, 4 h) was 160 nM.

On to `CCO[C@@H](C)Cn1c(C2CC(F)(F)C2)nc2ccc(-c3cc(C)c(=O)n(C)c3)cc21` [Compound 53, (S)-5-(2-(3,3-difluorocyclobutyl)-1-(2-ethoxypropyl)-1H-benzo[d]imidazol-6-yl)-1,3-dimethylpyridin-2(1H)-one], for which the 50% inhibitory concentration (IC50) (Homo sapiens, MV4-11, 4 h) worked out at 76 nM.

For the compound `Cn1cc(-c2ccc3nc(C4CCOCC4)n(CCOC(F)(F)F)c3c2)cc(Cl)c1=O` [Compound 36, 3-chloro-1-methyl-5-[2-tetrahydropyran-4-yl-3-[2-(trifluoromethoxy)ethyl]benzimidazol-5-yl]pyridin-2-one], the IC50 (Homo sapiens, MV4-11, 4 h) was determined as 53 nM.

Consider `Cc1cc(-c2ccc3nc(C4CCOCC4)n(C[C@H](C)OC(C)C)c3c2)cn(C)c1=O` [Compound 67, (S)-5-(1-(2-isopropoxypropyl)-2-(tetrahydro-2H-pyran-4-yl)-1H-benzo[d]imidazol-6-yl)-1,3-dimethylpyridin-2(1H)-one], for which, where the note is “Homo sapiens, MV4-11, 4 h”, the IC50 came to 26 nM.

On to `Cc1cc(-c2ccc3nc(C4(C)CCOCC4)n(CCOC(F)(F)F)c3c2)cn(C)c1=O` [Compound 31, 1,3-dimethyl-5-(2-(4-methyltetrahydro-2H-pyran-4-yl)-1-(2-(trifluoromethoxy)ethyl)-1H-benzo[d]imidazol-6-yl)pyridin-2(1H)-one], for which the IC50 (Homo sapiens, MV4-11, 4 h) turned out to be 24 nM.

With `COC(C)Cn1c(C2CC2)nc2ccc(-c3cc(C)c(=O)n(C)c3)cc21` (single isomer, unassigned) [Compound 23b, 5-[2-cyclopropyl-3-(2-methoxypropyl)benzimidazol-5-yl]-1,3-dimethylpyridin-2-one], the IC50 was determined as 730 nM.
